{"source": "patent US6759544B2", "about": "“Antimicrobially active acesulfame complexes, process for their preparation and their use” (Nutrinova Nutrition Specialties & Food Ingredients GmbH, priority 2001, dated 2004)", "format_in_all_cases": "cell-based", "key": {"[1]": {"test_system": "Streptococcus mutans (ATCC 25175)", "test": "Minimum inhibitory concentration, Streptococcus mutans", "method": "(§1) Method for Determining the Minimum Inhibitory Concentration\n(§2) The samples, to determine the minimum inhibitory concentration, are dissolved in WSH (water of standardized hardness) and mixed with twice-concentrated Caso-Bouillon pH 5.5. After inoculation with the test organisms, the solutions of the test organisms Streptococcus mutans (ATCC 25175) and Actinomyces odontolyticus (ATCC 17982) were overlayered with paraffin and incubated for a period of three days at a temperature of 37° C.\n(§3) The solution of the test organism Staphylococcus aureus (ATCC 6538) was incubated for two days at 37° C. The samples were then streaked onto Caso agar and incubated for two days at 37° C."}, "[2]": {"test_system": "Actinomyces odontolyticus (ATCC 17982)", "test": "Minimum inhibitory concentration, Actinomyces odontolyticus", "method": "as §1, §2, §3"}, "[3]": {"test_system": "Staphylococcus aureus (ATCC 6538)", "test": "Minimum inhibitory concentration, Staphylococcus aureus", "method": "as §1, §2, §3"}, "[4]": {"settings": "Streptococcus mutans (ATCC 25175), Caso-Bouillon pH 5.5, overlayered with paraffin, three days at 37° C."}, "[5]": {"settings": "Actinomyces odontolyticus (ATCC 17982), Caso-Bouillon pH 5.5, overlayered with paraffin, three days at 37° C."}, "[6]": {"settings": "Staphylococcus aureus (ATCC 6538), Caso-Bouillon pH 5.5, two days at 37° C."}}}
{"compound": "O=[N+]([O-])[O-].[Ag+]", "note": "[AgNO3, silver(I) nitrate]", "values": [{"measurement": "Minimum inhibitory concentration", "setting": "[1]; [4]", "value": 5.91, "unit": "mM"}, {"measurement": "Minimum inhibitory concentration", "setting": "[2]; [5]", "value": 5.91, "unit": "mM"}, {"measurement": "Minimum inhibitory concentration", "setting": "[3]; [6]", "value": 5.91, "unit": "mM"}]}
{"compound": "O.O.O.O.O.O.O.O=S(=O)([O-])[O-].[Zn+2]", "note": "[ZnSO4.7H2O, zinc(II) sulfate heptahydrate]", "values": [{"measurement": "Minimum inhibitory concentration", "setting": "[1]; pH 5.5", "value": 17.5, "unit": "mM"}, {"measurement": "Minimum inhibitory concentration", "setting": "[2]; pH 5.5", "value": 17.5, "unit": "mM"}, {"measurement": "Minimum inhibitory concentration", "setting": "[3]; pH 5.5", "value": 17.5, "unit": "mM"}]}
{"compound": "CC1=CC(=O)[N]([Zn]([OH])([OH])[N]2C(=O)C=C(C)OS2(=O)=O)S(=O)(=O)O1", "note": "[Zn(acesulfame)2.2H2O, Acesulfame-Zinc Complex]", "values": [{"measurement": "MIC", "setting": "[1]; ATCC25175, 72 h, Streptococcus mutans (ATCC 25175), Caso-Bouillon pH 5.5, overlayered with paraffin, three days at 37° C.", "value": 23.7, "unit": "mM"}, {"measurement": "MIC", "setting": "[2]; Schaalia odontolytica, ATCC17982, 72 h, Actinomyces odontolyticus (ATCC 17982), Caso-Bouillon pH 5.5, overlayered with paraffin, three days at 37° C.", "value": 11.8, "unit": "mM"}, {"measurement": "MIC", "setting": "[3]; ATCC6538, 48 h, Staphylococcus aureus (ATCC 6538), Caso-Bouillon pH 5.5, two days at 37° C.", "value": 23.7, "unit": "mM"}]}
{"compound": "O.O.O.O.O.O=S(=O)([O-])[O-].[Cu+2]", "note": "[CuSO4.5H2O, copper(II) sulfate pentahydrate]", "values": [{"measurement": "Minimum inhibitory concentration", "setting": "[1]; pH 5.5", "value": 4.01, "unit": "mM"}, {"measurement": "Minimum inhibitory concentration", "setting": "[2]; pH 5.5", "value": 20.13, "unit": "mM"}, {"measurement": "Minimum inhibitory concentration", "setting": "[3]; pH 5.5", "value": 20.13, "unit": "mM"}]}
{"compound": "CCCCCCCCCCCCCCCC[n+]1ccccc1.O.[Cl-]", "note": "[Cetylpridinium chloride.H2O, cetylpyridinium chloride.H2O]", "values": [{"measurement": "Minimum inhibitory concentration", "setting": "[1]; pH 5.5", "value": 0.00279, "unit": "mM"}, {"measurement": "Minimum inhibitory concentration", "setting": "[2]; pH 5.5", "value": 0.00279, "unit": "mM"}, {"measurement": "Minimum inhibitory concentration", "setting": "[3]; pH 5.5", "value": 0.13966, "unit": "mM"}]}
{"compound": "CC1=CC(=O)[N-]S(=O)(=O)O1.CCCCCCCCCCCCCCCC[n+]1ccccc1", "note": "[Cetylpyridinium(acesulfame), Acesulfame-Cetylpyridinium Complex]", "values": [{"measurement": "Minimum inhibitory concentration", "setting": "[1]; pH 5.5", "value": 0.00214, "unit": "mM"}, {"measurement": "Minimum inhibitory concentration", "setting": "[2]; pH 5.5", "value": 0.00214, "unit": "mM"}, {"measurement": "Minimum inhibitory concentration", "setting": "[3]; pH 5.5", "value": 0.10703, "unit": "mM"}]}
{"compound": "CC1=CC(=O)[N-]S(=O)(=O)O1.[Ag+]", "note": "[Ag(acesulfame).0.25H2O, Acesulfame-Silver Complex]", "values": [{"measurement": "Minimum inhibitory concentration", "setting": "[1]; [4]", "value": 18.31, "unit": "mM"}, {"measurement": "Minimum inhibitory concentration", "setting": "[2]; [5]", "value": 18.31, "unit": "mM"}, {"measurement": "Minimum inhibitory concentration", "setting": "[3]; [6]", "value": 3.65, "unit": "mM"}]}
